Consider twelve molecules from PubChem BioAssay (NCI).

Test systems include HT29 colon; KM12 colon; MALME-3M melanoma; MOLT-4 leukemia; OVCAR-8 ovarian; RXF 393 renal; SF-539 CNS; TK-10 renal; SK-OV-3 ovarian.
Test in all cases: DTP human tumour cell line panel, 48 h

As a reminder, the TGI is the concentration giving total growth inhibition. High values mean less potent growth arrest, low ones more potent growth arrest. For orientation: GI50 means the concentration that inhibits growth by half.

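Assay format: 96-well plates, 48-hour exposure. At the GI50, growth is halved. At the TGI there is no net growth.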 A value given as a limit tells only on which side of the number the result lay.

As to `CCN(CC)CCOc1ccc(CCc2cc(OC)c(OC)c(OC)c2)cc1`, the TGI with HT29 colon was 39 µM; with KM12 colon, more than 100 µM; with MALME-3M melanoma it was more than 100 µM; in the experiment with MOLT-4 leukemia, 85.2 µM; in the experiment on OVCAR-8 ovarian, more than 100 µM; with RXF 393 renal, 93.2 µM. Further, the TGI with SF-539 CNS is more than 100 µM; with TK-10 renal it was 88.9 µM.
`C1=CC=C2NCCCCCCCNC3=CC=CC=CC3=NCCCCCCCN=C2C=C1`: the TGI in the experiment with HT29 colon was more than 100 µM; in the experiment on KM12 colon it was more than 100 µM; in the experiment on MALME-3M melanoma, more than 100 µM; in the experiment with MOLT-4 leukemia it was more than 100 µM; in the experiment on OVCAR-8 ovarian it was more than 100 µM; with RXF 393 renal, 39.5 µM. This molecule also returned a concentration for total growth inhibition (TGI) with SF-539 CNS of more than 100 µM.
Take `c1ccc(CN2CCC3(CC2)SSC2(CCN(Cc4ccccc4)CC2)S3)cc1`: the TGI in the experiment with HT29 colon was 43.5 µM; in the experiment with KM12 colon it was more than 100 µM; in the experiment with MALME-3M melanoma, more than 100 µM; in the experiment on MOLT-4 leukemia it was more than 100 µM; in the experiment on OVCAR-8 ovarian, more than 100 µM; in the experiment on SF-539 CNS, more than 100 µM. Further, the TGI in the experiment with SK-OV-3 ovarian and in the experiment on TK-10 renal was more than 100 µM in each case.
In the case of `COc1ccc(-c2nc(/C=N/Nc3cc(C)nc4ccc(Cl)cc34)c(C)o2)cc1`, the GI50 in the experiment on KM12 colon was 1.79 µM; in the experiment on MALME-3M melanoma it was 1.84 µM; in the experiment on OVCAR-8 ovarian, 1.89 µM; in the experiment with RXF 393 renal, 1.64 µM; in the experiment on SF-539 CNS it was 1.97 µM; with SK-OV-3 ovarian, 1.65 µM. Further, the GI50 with TK-10 renal was 1.83 µM. For the same molecule, the TGI in the experiment on KM12 colon worked out at 3.49 µM; in the experiment with MALME-3M melanoma, 3.43 µM; with OVCAR-8 ovarian it was 3.91 µM; in the experiment with RXF 393 renal, 3.14 µM; with SF-539 CNS, 3.45 µM; in the experiment with SK-OV-3 ovarian it was 3.06 µM. Moreover, the TGI with TK-10 renal was found to be 3.3 µM.
For `COc1ccc2c(c1)[n+]([O-])c(-c1ccc(OC)c(OC)c1)c(N)[n+]2[O-]`, the TGI in the experiment with HT29 colon, with KM12 colon, with MALME-3M melanoma, in the experiment with MOLT-4 leukemia, in the experiment on OVCAR-8 ovarian and with SF-539 CNS was more than 100 µM each time. Moreover, the TGI in the experiment on SK-OV-3 ovarian and in the experiment with TK-10 renal was more than 100 µM in each case.
As to `c1ccc(C(c2ccccc2)c2cccnc2)cc1`, the TGI with HT29 colon, in the experiment on KM12 colon, in the experiment with MALME-3M melanoma, in the experiment with OVCAR-8 ovarian, with SF-539 CNS and with SK-OV-3 ovarian was more than 100 µM in each case. The TGI in the experiment on TK-10 renal was more than 100 µM.
Take `O=c1[nH]nc2ccccc2c1Cc1ccccc1`: the TGI with HT29 colon, in the experiment with KM12 colon, with MALME-3M melanoma, in the experiment on MOLT-4 leukemia, in the experiment on OVCAR-8 ovarian and with SF-539 CNS was more than 100 µM throughout. Further, the TGI in the experiment with SK-OV-3 ovarian and in the experiment with TK-10 renal was more than 100 µM throughout.
For `Clc1ccc(N=Nc2nc3ccccc3nc2N=Nc2ccc(Cl)cc2Cl)c(Cl)c1`, the TGI with HT29 colon, with KM12 colon, in the experiment on MALME-3M melanoma, in the experiment with MOLT-4 leukemia, with OVCAR-8 ovarian and in the experiment with RXF 393 renal was more than 100 µM throughout. In addition, the TGI in the experiment with SF-539 CNS and in the experiment on TK-10 renal was more than 100 µM in each case.
Take `COCC(O)Cn1ccnc1[N+](=O)[O-]` (configuration not stated): the TGI in the experiment with HT29 colon, in the experiment with KM12 colon, with MALME-3M melanoma, in the experiment on MOLT-4 leukemia, in the experiment on OVCAR-8 ovarian and in the experiment with SF-539 CNS was more than 100 µM each time. For the same molecule, the TGI with SK-OV-3 ovarian and in the experiment on TK-10 renal was more than 100 µM in each case.
For the molecule `CCn1cc(C(=O)N/N=C/c2ccccc2)c(=O)c2cc(F)c(N3CCNC(C)C3)c(F)c21` (configuration not stated), the GI50 with SF-539 CNS is 1.7 µM; in the experiment with SK-OV-3 ovarian, 1.81 µM; in the experiment with TK-10 renal it was 1.71 µM. Moreover, the values for the TGI in the experiment with SF-539 CNS, in the experiment with SK-OV-3 ovarian and with TK-10 renal were 3.11 µM, 3.25 µM and 3.24 µM, respectively.
As for `Cc1cc2c(C)nn(Cc3ccccc3)c2c(C(N)=O)c1C`, the TGI in the experiment with HT29 colon, with KM12 colon, with MALME-3M melanoma, with MOLT-4 leukemia, with OVCAR-8 ovarian and in the experiment with SF-539 CNS was more than 100 µM throughout. In addition, the TGI in the experiment with SK-OV-3 ovarian and with TK-10 renal was more than 100 µM in each case.
Regarding `OCC1C(/C=C/c2ccoc2)ON2CCCC12` (configuration not stated), the TGI with HT29 colon, in the experiment with KM12 colon, in the experiment with MALME-3M melanoma, in the experiment with OVCAR-8 ovarian, in the experiment with RXF 393 renal and with SF-539 CNS was more than 100 µM each time. Moreover, the TGI with TK-10 renal is more than 100 µM.
